Literature values in patent US20070213388A1, “Acetylcholinesterase Inhibitors and N-Methyl-D-Aspartate Antagonists Useful in the Treatment of Cognitive Disorders” (priority 2004, published 2007).

How the values were obtained:
cholinesterase = details: see WO 00/248150
brain ACh levels = details: conscious, freely-moving rats, striatal microdialysis
AChE = biological target: T1, AChE (Rattus norvegicus, UniProt P37136); details: rats, after phenserine administration
T1 construct: from tissue; host or cells: rat
T1 sequence (P37136 32-614): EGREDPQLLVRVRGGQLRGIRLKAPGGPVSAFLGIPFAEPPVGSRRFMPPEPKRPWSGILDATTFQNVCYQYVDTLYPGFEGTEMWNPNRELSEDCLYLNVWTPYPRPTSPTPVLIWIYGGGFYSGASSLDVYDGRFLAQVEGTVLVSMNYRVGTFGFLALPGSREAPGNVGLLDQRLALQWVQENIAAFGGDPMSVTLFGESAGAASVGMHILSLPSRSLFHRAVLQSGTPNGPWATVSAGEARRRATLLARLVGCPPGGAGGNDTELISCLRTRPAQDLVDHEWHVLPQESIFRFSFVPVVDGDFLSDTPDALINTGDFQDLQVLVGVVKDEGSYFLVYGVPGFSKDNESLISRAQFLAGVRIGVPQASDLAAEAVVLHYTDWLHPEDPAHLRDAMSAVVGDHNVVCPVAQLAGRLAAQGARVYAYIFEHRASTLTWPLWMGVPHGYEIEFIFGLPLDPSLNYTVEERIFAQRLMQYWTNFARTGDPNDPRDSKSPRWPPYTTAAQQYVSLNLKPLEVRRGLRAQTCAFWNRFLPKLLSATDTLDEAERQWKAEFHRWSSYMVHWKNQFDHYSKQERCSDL

[1] = rats, i.v. dosing
[2] = test system: cytochrome P450 (CYP 450) isoenzymes; details: in vitro
[3] = biological target: neuronal receptors (NMDA receptor); details: at -67 mV
[4] = not given; remark: listed apart in the source

## CN1CC[C@@]2(C)c3cc(OC(=O)Nc4ccccc4)ccc3N(C)C12 (single isomer, unassigned; (+)) [(+)-phenserine]
cholinesterase
  cholinesterase activity: lacks cholinesterase activity

## CN1CC[C@]2(C)c3cc(OC(=O)Nc4ccccc4)ccc3N(C)C12 (single isomer, unassigned; (-)) [phenserine, (−)-N-phenylcarbamoyl eseroline]
Brain ACh levels
  rise in brain ACh levels: greater than 3 fold
AChE
  inhibition of AChE: > 70%
[1]
  brain drug levels relative to plasma: 10 fold
  time to peak drug levels: ≤ 5 min
[1]; brain
  half-life of brain drug levels: 8.5 min
[1]; plasma
  half-life of plasma drug levels: 12.6 min

## CC12CC3CC(C)(C1)CC(N)(C3)C2.Cl [memantine, 1-amino-3,5-dimethyladamantane hydrochloride]
[2]
  inhibition of cytochrome P450 (CYP 450) isoenzymes: does not inhibit
other
  water solubility: water soluble
[3]
  IC50: 1400 nM
[4]; crosses the blood brain barrier
  CSF/serum ratio: 0.52
[4]; humans, oral dose
  terminal elimination half-life: 60 to 80 h
